According to US8716309B2, “Pharmaceutical composition comprising pyridone derivatives” (priority 2011, dated 2014):

Legend:
human α7 nAChR = human α7 nAChR (Homo sapiens, UniProt P36544); experiment: cell-based; details: EC50 of human α7nAChR(nM), HEK293T/17 cells transfected with human α7 nAChR; PNU-120596 added; relative to epibatidine 1 μM positive control
Male ICR mice = experiment: Novel Object Recognition Test (NORT), MK-801 induced amnesia; type: in vivo; details: Mus musculus; po; dose at which the relative RI is given; doses 0.03˜3 mg/kg; read-out: NORT MED
Source text: A NORT, which was first introduced by Ennaceur and Delacour, is a cognitive memory test for measuring whether rats are able to remember objects with which they have had previous experience based on the nature of rats, i.e., preference to explore novel objects [Ennaceur A and Delacour J (1988) A new one-trial test for neurobiological studies of memory in rats. 1; Behavioral data. Behavioral Brain Res. 31; 47-59]. This NOR test is a popular experimental method for measuring changes in memory of objects in rodents administered with either an amnesia-inducing drug or other general drugs, by which memory recovery efficacy of a test drug in the rodents administered with the amnesia-inducing drug is explored. In the present example, the test was performed in accord with the description of Bevins and Besheer [Bevins, R. A. & Besheer, J. Object recognition in rats and mice; a one-trial non-matching-to-sample learning task to study ‘recognition memory’. Nat. Protoc. 2006; 1(3); 1306-11. (2006)]. Male ICR mice (available from Orient Bio Inc., Korea) weighing from about 20 g to about 32 g were orally administered a test compound dissolved in a 30% PEG at doses of 0.03˜3 mg/kg and 10 ml/kg body weight. 30 minutes after the administration, MK-801 (available from Sigma) dissolved in saline was subcutaneously administered at doses of 0.1 mg/kg and 10 ml/kg body weight to induce amnesia. About 30 minutes after the administration of MK-801, the mice were allowed to explore a rectangular stainless steel pillar or a circular plastic pillar which was previously placed in a box for about 5 minutes. About 24 hours after the exploration, one of the two objects previously presented was replaced with a new one (i.e., to include one rectangular stainless steel pillar and one circular plastic pillar), the times they took to explore were measured for about 5 minutes. A recognition index (RI) was defined as: [(Exploration time for novel object in test compound group/Exploration time for all objects in test compound group)/(Exploration time for novel object in MK801 group/Exploration time for all objects in MK801 group)×100].
Table 2 below presents relative RIs of the compounds at a minimal dose […].

human α7 nAChR, sequence (P36544 23-502): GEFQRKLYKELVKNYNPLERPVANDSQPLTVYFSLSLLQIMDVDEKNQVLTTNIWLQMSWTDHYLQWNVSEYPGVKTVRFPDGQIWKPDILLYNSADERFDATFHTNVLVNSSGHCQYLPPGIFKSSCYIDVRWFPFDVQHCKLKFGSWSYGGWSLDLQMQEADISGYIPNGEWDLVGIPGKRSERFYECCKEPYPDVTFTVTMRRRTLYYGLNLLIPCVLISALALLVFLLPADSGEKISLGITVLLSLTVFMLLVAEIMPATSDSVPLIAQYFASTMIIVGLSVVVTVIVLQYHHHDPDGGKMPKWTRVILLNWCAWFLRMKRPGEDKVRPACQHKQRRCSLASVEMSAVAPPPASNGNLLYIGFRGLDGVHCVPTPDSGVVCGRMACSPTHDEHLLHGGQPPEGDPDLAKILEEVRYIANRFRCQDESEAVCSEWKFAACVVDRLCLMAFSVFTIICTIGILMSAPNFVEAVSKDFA

O=C(N[C@H]1CN2CCC1CC2)c1ccc(=O)n(-c2ccc(Cl)cc2Cl)c1 [Example 26, N-[(3R)-1-azabicyclo[2.2.2]octan-3-yl)-1-(2,4-dichlorophenyl)-6-oxo-3-pyridinecarboxamide]
EC50 (human α7 nAChR): 100 to 500 nM
minimal effective dose (Male ICR mice): 1 mg/kg

COc1ccc(-n2cc(C(=O)NC3CN4CCC3CC4)ccc2=O)c(SC)c1 (stereo not drawn) [Example 84, N-(1-azabicyclo[2.2.2]octan-3-yl)-1-[4-methoxy-2-(methylthio)phenyl]-6-oxo-3-pyridinecarboxamide]
EC50 (human α7 nAChR): < 100 nM
minimal effective dose (Male ICR mice): 0.3 mg/kg

Cc1ccc(-n2cc(C(=O)NC3CN4CCC3CC4)ccc2=O)c(Cl)c1 (stereo not drawn) [Example 33, N-(1-azabicyclo[2.2.2]octan-3-yl)-1-(2-chloro-4-methylphenyl)-6-oxo-3-pyridinecarboxamide]
EC50 (human α7 nAChR): 100 to 500 nM
minimal effective dose (Male ICR mice): 1 mg/kg

CSc1cc(Cl)ccc1-n1cc(C(=O)NC2CN3CCC2CC3)ccc1=O (stereo not drawn) [Example 86, N-(1-azabicyclo[2.2.2]octan-3-yl)-1-[4-chloro-2-(methylthio)phenyl]-6-oxo-3-pyridinecarboxamide]
EC50 (human α7 nAChR): < 100 nM
minimal effective dose (Male ICR mice): 0.3 mg/kg

Cc1ccc(-c2ccc(-n3cc(C(=O)NC4CN5CCC4CC5)ccc3=O)c(Cl)c2)s1 (stereo not drawn) [Example 109, N-(1-azabicyclo[2.2.2]octan-3-yl)-1-[2-chloro-4-(5-methyl-2-thiophenyl)phenyl]-6-oxo-3-pyridinecarboxamide]
EC50 (human α7 nAChR): 100 to 500 nM
minimal effective dose (Male ICR mice): 3 mg/kg

O=C(NC1CN2CCC1CC2)c1ccc(=O)n(-c2ccc(Oc3ccc(Cl)cc3)cc2)c1 (stereo not drawn) [Example 71, N-(1-azabicyclo[2.2.2]octan-3-yl)-1-[4-(4-chlorophenoxy)phenyl]-6-oxo-3-pyridinecarboxamide]
EC50 (human α7 nAChR): 100 to 500 nM

CSc1cc(Cl)ccc1-n1cc(C(=O)N[C@@H]2CN3CCC2CC3)ccc1=O [Example 88, N-[(3S)-1-azabicyclo[2.2.2]octan-3-yl]-1-[4-chloro-2-(methylthio)phenyl]-6-oxo-3-pyridinecarboxamide]
EC50 (human α7 nAChR): 100 to 500 nM

CCCc1ccc(-n2cc(C(=O)NC3CN4CCC3CC4)ccc2=O)cc1 (stereo not drawn) [Example 15, N-(1-azabicyclo[2.2.2]octan-3-yl)-6-oxo-1-(4-propylphenyl)-3-pyridinecarboxamide]
EC50 (human α7 nAChR): 500 to 1000 nM

O=C(NC1CN2CCC1CC2)c1ccc(=O)n(-c2ccc(Cl)cc2Cl)c1 (stereo not drawn) [Example 25, N-(1-azabicyclo[2.2.2]octan-3-yl)-1-(2,4-dichlorophenyl)-6-oxo-3-pyridinecarboxamide]
EC50 (human α7 nAChR): 500 to 1000 nM
minimal effective dose (Male ICR mice): 3 mg/kg

O=C(NC1CN2CCC1CC2)c1ccc(=O)n(-c2ccc(OC(F)(F)F)cc2Cl)c1 (stereo not drawn) [Example 57, N-(1-azabicyclo[2.2.2]octan-3-yl)-1-[2-chloro-4-(trifluoromethoxy)phenyl]-6-oxo-3-pyridinecarboxamide]
EC50 (human α7 nAChR): 100 to 500 nM

O=C(NC1CN2CCC1CC2)c1ccc(=O)n(-c2ccccc2-c2nc3ccccc3s2)c1 (stereo not drawn) [Example 107, N-(1-azabicyclo[2.2.2]octan-3-yl)-1-[2-(1,3-benzothiazole-2-yl)phenyl]-6-oxo-3-pyridinecarboxamide]
EC50 (human α7 nAChR): < 100 nM

O=C(NC1CN2CCC1CC2)c1ccc(=O)n(-c2ccccc2)c1 (stereo not drawn) [Example 1, N-(1-azoniabicyclo[2.2.2]octan-3-yl)-6-oxo-1-phenyl-3-pyridinecarboxamide]
EC50 (human α7 nAChR): > 1000 nM

O=C(NC1CN2CCC1CC2)c1ccc(=O)n(-c2cccc3ccccc23)c1 (stereo not drawn) [Example 102, N-(1-azabicyclo[2.2.2]octan-3-yl)-1-(1-naphthalenyl)-6-oxo-3-pyridinecarboxamide]
EC50 (human α7 nAChR): 100 to 500 nM

CSc1cc(Cl)ccc1-n1cc(C(=O)N[C@H]2CN3CCC2CC3)ccc1=O [Example 87, N-[(3R)-1-azabicyclo[2.2.2]octan-3-yl]-1-[4-chloro-2-(methylthio)phenyl]-6-oxo-3-pyridinecarboxamide]
EC50 (human α7 nAChR): < 100 nM

CCc1ccc(-n2cc(C(=O)NC3CN4CCC3CC4)ccc2=O)c(SC)c1 (stereo not drawn) [Example 98, N-(1-azabicyclo[2.2.2]octan-3-yl)-1-[4-ethyl-2-(methylthio)phenyl]-6-oxo-3-pyridinecarboxamide]
EC50 (human α7 nAChR): < 100 nM

O=C(NC1CN2CCC1CC2)c1ccc(=O)n(-c2ccc(-c3ccc(Cl)cc3)cc2)c1 (stereo not drawn) [Example 67, N-(1-azabicyclo[2.2.2]octan-3-yl)-1-[4-(4-chlorophenyl)phenyl]-6-oxo-3-pyridinecarboxamide]
EC50 (human α7 nAChR): 500 to 1000 nM

O=C(NC1CN2CCC1CC2)c1ccc(=O)n(-c2ccccc2Sc2ccccc2)c1 (stereo not drawn) [Example 95, N-(1-azabicyclo[2.2.2]octan-3-yl)-6-oxo-1-[2-(phenylthio)phenyl]-3-pyridinecarboxamide]
EC50 (human α7 nAChR): < 100 nM

CC(C)(C)c1ccc(-n2cc(C(=O)NC3CN4CCC3CC4)ccc2=O)c(Cl)c1 (stereo not drawn) [Example 36, N-(1-azabicyclo[2.2.2]octan-3-yl)-1-(4-tert-butyl-2-chlorophenyl)-6-oxo-3-pyridinecarboxamide]
EC50 (human α7 nAChR): 100 to 500 nM

O=C(NC1CN2CCC1CC2)c1ccc(=O)n(-c2ccc(Cl)cc2)c1 (stereo not drawn) [Example 4, N-(1-azabicyclo[2.2.2]octan-3-yl)-1-(4-chlorophenyl)-6-oxo-3-pyridinecarboxamide]
EC50 (human α7 nAChR): > 1000 nM
minimal effective dose at 3 mg/kg (Male ICR mice): 3 mg/kg

CSc1ccccc1-n1cc(C(=O)N[C@H]2CN3CCC2CC3)ccc1=O [Example 78, N-[(3R)-1-azabicyclo[2.2.2]octan-3-yl]-1-[2-(methylthio)phenyl]-6-oxo-3-pyridinecarboxamide]
EC50 (human α7 nAChR): < 100 nM

CCSc1cc(Cl)ccc1-n1cc(C(=O)NC2CN3CCC2CC3)ccc1=O (stereo not drawn) [Example 97, N-(1-azabicyclo[2.2.2]octan-3-yl)-1-[4-chloro-2-(ethylthio)phenyl]-6-oxo-3-pyridinecarboxamide]
EC50 (human α7 nAChR): < 100 nM

O=C(NC1CN2CCC1CC2)c1ccc(=O)n(-c2ccccc2Cl)c1 (stereo not drawn) [Example 2, N-(1-azabicyclo[2.2.2]octan-3-yl)-1-(2-chlorophenyl)-6-oxo-3-pyridinecarboxamide]
EC50 (human α7 nAChR): < 100 nM

CSc1ccccc1-n1cc(C(=O)N[C@@H]2CN3CCC2CC3)ccc1=O [Example 79, N-[(3S)-1-azabicyclo[2.2.2]octan-3-yl]-1-[2-(methylthio)phenyl]-6-oxo-3-pyridinecarboxamide]
EC50 (human α7 nAChR): 100 to 500 nM

O=C(NC1CN2CCC1CC2)c1ccc(=O)n(-c2cc(Cl)c(Cl)cc2Cl)c1 (stereo not drawn) [Example 60, N-(1-azabicyclo[2.2.2]octan-3-yl)-1-(2,4,5-trichlorophenyl)-6-oxo-3-pyridinecarboxamide]
EC50 (human α7 nAChR): 500 to 1000 nM

COc1ccc(-n2cc(C(=O)NC3CN4CCC3CC4)ccc2=O)c(OC)c1 (stereo not drawn) [Example 49, N-(1-azabicyclo[2.2.2]octan-3-yl)-1-(2,4-dimethoxyphenyl)-6-oxo-3-pyridinecarboxamide]
EC50 (human α7 nAChR): 100 to 500 nM

Cc1cnc(-c2ccccc2-n2cc(C(=O)NC3CN4CCC3CC4)ccc2=O)s1 (stereo not drawn) [Example 106, N-(1-azabicyclo[2.2.2]octan-3-yl)-1-[2-(5-methyl-2-thiazolyl)phenyl]-6-oxo-3-pyridinecarboxamide]
EC50 (human α7 nAChR): 500 to 1000 nM

COc1ccccc1-n1cc(C(=O)NC2CN3CCC2CC3)ccc1=O (stereo not drawn) [Example 20, N-(1-azabicyclo[2.2.2]octan-3-yl)-1-(2-methoxyphenyl)-6-oxo-3-pyridinecarboxamide]
EC50 (human α7 nAChR): 500 to 1000 nM

CC(C)c1ccc(-n2cc(C(=O)NC3CN4CCC3CC4)ccc2=O)cc1 (stereo not drawn) [Example 17, N-(1-azabicyclo[2.2.2]octan-3-yl)-6-oxo-1-(4-propan-2-ylphenyl)-3-pyridinecarboxamide]
EC50 (human α7 nAChR): 500 to 1000 nM

O=C(N[C@@H]1CN2CCC1CC2)c1ccc(=O)n(-c2ccc(Cl)cc2)c1 [Example 6, N-[(3S)-1-azabicyclo[2.2.2]octan-3-yl]-1-(4-chlorophenyl)-6-oxopyridine-3-carboxamide]
EC50 (human α7 nAChR): > 1000 nM

O=C(NC1CN2CCC1CC2)c1ccc(=O)n(-c2ccccc2SCc2ccccc2)c1 (stereo not drawn) [Example 82, N-(1-azabicyclo[2.2.2]octan-3-yl)-6-oxo-1-[2-(phenylmethylthio)phenyl]-3-pyridinecarboxamide]
EC50 (human α7 nAChR): 100 to 500 nM

Cc1ccc(-n2cc(C(=O)NC3CN4CCC3CC4)ccc2=O)c(C)c1 (stereo not drawn) [Example 32, N-(1-azabicyclo[2.2.2]octan-3-yl)-1-(2,4-dimethylphenyl)-6-oxo-3-pyridinecarboxamide]
EC50 (human α7 nAChR): > 1000 nM

CSc1ccc(C(F)(F)F)cc1-n1cc(C(=O)NC2CN3CCC2CC3)ccc1=O (stereo not drawn) [Example 83, N-(1-azabicyclo[2.2.2]octan-3-yl)-1-[2-(methylthio)-5-(trifluoromethyl)phenyl]-6-oxo-3-pyridinecarboxamide]
EC50 (human α7 nAChR): 500 to 1000 nM
